The test system of data set [1] is rat adipocytes. Description: Lipogenesis ([U-14C]glucose incorporation into lipids) in rat adipocytes. The class given is cell-based. On the procedure:
(4A) Insulin (17.24 nmoles in 0.2 ml 0.01 M NaHCO3) reacted with increasing concentrations of PEG5000-Fmoc-OSu at a molar excess over the protein as indicated in the figure for 2 hours at 25° C. The number of free amino groups that remained unmodified were quantitated with TNBS.
PEG5000-Fmoc-insulin conjugates containing one and two moles of PEG5000-Fmoc/mole insulin were incubated at a concentration of 0.172 μM in 0.1 M NaHCO3-0.5% bovine serum albumin and 1 mM NaN3 at 37° C. At the indicated time points aliquots were analyzed (in several concentrations for each aliquot) for their lipogenic potencies in rat adipocytes.
Results are expressed as a percentage of maximal stimulation.
(ii) Rat adipocytes were prepared from fat pads of male Wistar rats (100-200 gr) by collagenase digestion as described (Rodbell, 1964). The fat pads were cut into small pieces with scissors and suspended in 3 ml of KRB buffer containing NaCl, 110 mM; NaHCO3, 25 mM; Kcl, 5 mM; KH2PO4, 1.2 mM; CaCl2, 1.3 mM; MgSO4, 1.3 mM; and 0.7% BSA (pH 7.4). […] Five ml of buffer was then added, and the cells were passed through a mesh screen. The cells were then allowed to stand for several minutes in a 15 ml plastic test tube at room temperature, floating, and the buffer underneath was removed. This procedure (suspension, floating, and removal of buffer underneath) was repeated three times.
(iii) Lipogenesis (incorporation of [U-^14C] glucose into the lipids of intact adipocytes). The incorporation of [U-^14C] glucose into adipose tissue in rat adipocytes was performed as described (Moody et al., 1974). Adipocyte suspensions (3×10^5 cells/ml) were divided into plastic vials (0.5 ml per vial) and incubated for 60 min at 37° C. under an atmosphere of carbogen with 0.2 mM [U-^14C]glucose, in either the absence or presence of insulin. Lipogenesis was terminated by adding toluene-based scintillation fluid (1.0 ml per vial) and the radioactivity in extracted lipids was counted.
Rat adipocytes were prepared from the fat pads of male Wistar rats (100-200 g) by collagenase digestion (Rodbel, 1964). Lipogenesis (during which [U^14-C] glucose was incorporated into the lipids) was performed using the procedure of Moody et al (Moody et al., 1974). Diabetes was induced by a single intravenous injection of freshly prepared streptozocin (STZ) solution (55 mg/kg body wt) as previously described (Meyerovitch et al., 1987). Rats were maintained at 24° C. under conditions of controlled lighting and were fed ad libitum. Blood samples for the analysis of blood glucose were taken from the tail veins and measured with a glucose analyzer (Beckman Instruments, Fullerton, Calif.) by the glucose oxidase method. Groups consisted of five Wistar rats weighing 170±5 g. Data are presented as means±SE.

Data set [2] concerns Escherichia coli (E. coli strain N-4156-W.T). Kind of data set: Inhibition of E. coli replication (antibacterial potency of gentamicin and PEG-Fmoc-gentamicin). It counts as cell-based.
Data set [3] can be described thus: Hydrolysis of conjugates / release of parent drug upon incubation at pH 8.5, 37° C. (HPLC or TNBS).
Data set [4] has as its target T1, hGH-receptor preparation extracted from rabbit liver plasma membranes (Oryctolagus cuniculus, UniProt P19941).
T1 construct: enriched hGH-receptor preparation extracted from rabbit liver plasma membranes; from tissue; host or cells: rabbit liver plasma membranes
T1 sequence (P19941 19-638): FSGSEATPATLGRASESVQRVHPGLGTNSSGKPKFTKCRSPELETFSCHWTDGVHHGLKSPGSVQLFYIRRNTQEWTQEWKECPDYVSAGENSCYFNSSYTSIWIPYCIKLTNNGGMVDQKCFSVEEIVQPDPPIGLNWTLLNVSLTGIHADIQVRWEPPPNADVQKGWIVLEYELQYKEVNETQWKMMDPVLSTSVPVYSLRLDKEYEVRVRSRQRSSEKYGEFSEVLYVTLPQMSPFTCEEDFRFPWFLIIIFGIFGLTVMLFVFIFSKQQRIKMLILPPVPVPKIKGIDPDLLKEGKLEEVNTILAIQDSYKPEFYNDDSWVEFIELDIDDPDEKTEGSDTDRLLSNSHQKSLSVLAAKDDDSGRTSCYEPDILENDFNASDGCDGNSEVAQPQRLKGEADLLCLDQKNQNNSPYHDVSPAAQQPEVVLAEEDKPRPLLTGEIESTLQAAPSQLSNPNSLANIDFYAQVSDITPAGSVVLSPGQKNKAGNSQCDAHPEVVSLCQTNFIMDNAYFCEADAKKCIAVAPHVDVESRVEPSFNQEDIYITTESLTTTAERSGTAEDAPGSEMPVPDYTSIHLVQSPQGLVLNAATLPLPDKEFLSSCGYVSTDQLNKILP
Description: 125I-hGH displacement from hGH-receptor preparation. The class given is binding. On the procedure: PEG40000-FMS-hGH (1 mg/ml) was incubated in 0.1 M phosphate buffer, 0.6% BSA and −2 mM NaN3 at 37° C. Aliquots were withdrawn at the indicated time points, and analyzed for their potencies to displace ^125I-hGH from enriched hGH-receptor preparation extracted from rabbit liver plasma membranes. Native hGH displaces ^125I-hGH in this assay half maximally at a concentration of 0.3±0.03 nM. […] PEG40000FMS-hGH (1 mg protein) was incubated as described above. At the indicated time points, 0.1 ml aliquots withdrawn and subjected to analytical HPLC analysis.
The hGH displacement assay was performed as previously described (Tsushima et al., 1980).

Data set [5] concerns CD1-mice. Description: Glucose-lowering potency of insulin and PEG5000-Fmoc-insulin in mice (SC or IP). It counts as in vivo, mouse. Here is the method: Mice received SC, either native insulin (Zn^2+-free, 1.72 nmole/mouse in 0.2 ml PBS buffer) or (PEG5000-Fmoc)1-insulin (17.2 nmole/mouse, in 0.2 ml PBS buffer). Blood glucose levels were determined at the indicated time points. Each point is the arithmetic mean±SEM of blood glucose of five mice.
Groups of mice received IP either insulin (Zn^2+-free, 0.345 nmol/mouse, in 0.2 ml PBS buffer) or (PEG5000-Fmoc)1-insulin (3.45 nmoles/mouse, in 0.2 ml PBS buffer). Blood glucose levels were determined at the indicated time points. Each point in the figure is the arithmetic mean±SEM of five mice.
(iv) Glucose-lowering potency of insulin and its derivatives was determined in mice following administration under the conditions specified in each experiment. […] Each group consisted of 4-5 mice. Data are presented as means±SEM.
Native insulin (Zn^2+ free, 1.72 nmol/mouse) or (PEG5000-Fmoc)1-insulin (17.2 nmoles/mouse) were administered subcutaneously to groups of mice (n=5 in each group), and the glucose lowering profiles were determined. Native insulin reduced blood glucose level maximally at 30 min.
In order to differentiate between these factors, the subcutaneous compartment was bypassed by administering native insulin (Zn^2+-free, 0.345 nmoles/mouse, in 0.2 ml PBS buffer) or (PEG5000-Fmoc)1-insulin (3.45 nmoles/mouse, in 0.2 ml PBS buffer) intraperitoneally. The glucose lowering capacities were then monitored. Blood glucose levels were determined at different time points.

The test system of data set [6] is C57BL/6J male mice. Kind of data set: Food intake (re-feeding after 24 h starvation) in mice. It counts as in vivo, mouse. On the procedure:
Drinking water was provided at all times.
Results are average of four identical experiments.
Drinking water was provided at all times. […] A minimum interval of 1 h was introduced between injection and re-feeding to avoid a stress-dependent decrease in food intake. The amount of food consumed per group was determined at the end of the feeding period. Remaining chow was weighed after the 2 h re-feeding period and the cumulative food intake per 10 mice was calculated. Values of food intake in replicate experiments were normalized according to the saline controls. Results are expressed as food intake per 10 mice±SD from 2-5 replicate experiments.
(vi) Statistical analysis. The significance of differences in food consumption was determined by the Student's t-test, using the total weight of food consumed by each group of 10 mice as a single value. A saline-injected group of 10 mice was included in each experiment as a control. A two-tailed, paired t-test was performed between the control and treated groups.

For data set [7] the following is noted: human, in vivo; cited from earlier work.
The nature of data set [8]: Pharmacokinetic profile of SC 125I-insulin and 125I-HSA in rats. The following applies: 10 μg 125I-labeled protein.
Description: Blood aliquots obtained from the tail vein at the indicated time points were spotted onto Whatman #3 paper and weighed immediately. Each paper was washed with 10% TCA and measured for its radioactive content. […] Each point in the figure represents the arithmetic mean of 5 rats±SE.
Rats were maintained at 24° C. under conditions of controlled lighting and were fed ad libitum. […] Data are presented as means±SE.
For comparison, we subcutaneously administered ^125I-insulin under similar experimental conditions.
Data set [9] has as its system rat adipocytes. Kind of data set: Lipogenesis ([U-14C]glucose incorporation into lipids) in rat adipocytes. The class given is cell-based. The following applies: Example 34 assay, 2 h at 37° C.; HSA conjugates taken as 24±3 μg insulin per mg HSA.
The conditions of data set [10]: Clark et al., 1996; cited from earlier work.
Setting [11] is: SC 5 nmol/mouse, 18 h prior to re-feeding.

Values joined by “and” are separate entries in the source; they are usually repeats but may differ in a detail not shown here. Equal entries are not always repeated.

These results are taken from patent US9433683B2, “Reversible pegylated drugs” (Yeda Research and Development Co., Ltd., priority 2003, dated 2016).

The term IC50 denotes the concentration that gives 50% inhibition. A lower IC50 goes with greater potency in that assay.

As for “PEG5000-Fmoc-insulin: insulin preparations with 0.3 to 2.2 mol PEG5000-Fmoc incorporated per mol insulin”, the “biological (lipogenic) potency relative to native insulin” value is listed as 87±4% in data set [1] (0.3 mol PEG5000-Fmoc/mol insulin incorporated); 60±3% in [1] (0.6 mol PEG5000-Fmoc/mol insulin incorporated); 8±1% in data set [1] (1.1 mol PEG5000-Fmoc/mol insulin incorporated); 4±0.3% in [1] (1.5 mol PEG5000-Fmoc/mol insulin incorporated); “less than 1%” in data set [1] (2.2 mol PEG5000-Fmoc/mol insulin incorporated).
Take gentamicin: in data set [2], inhibition was half-maximal at 220 ± 20 nM (IC50) and the “concentration inhibiting E. coli replication half-maximally” value stood at 0.1 µg/mL.
Regarding PEG40-FMS-hGH, the “k (h^−1), slope of ln [PEG-FMS conjugate] against time” value in [3] is reported as 0.059 h^−1. Besides, the “receptor binding affinity” value in [4] (in vitro, prior to incubation) was “no receptor binding affinity”.
Turning to “(PEG5000-Fmoc)1-insulin: about one mol PEG-Fmoc per mol insulin”, the “lipogenic activity, % of native potency” value in data set [1] (after 2 hours at pH 8.5, 37° C.) amounted to 16%; in data set [1] (after 4 hours at pH 8.5, 37° C.), 24%; in data set [1] (after 10 hours at pH 8.5, 37° C.), 30%; in [1] (after 17 hours at pH 8.5, 37° C.) it was 36%; in data set [1] (after 80 hours at pH 8.5, 37° C.), 95%. Further, in [1] (prior to hydrolysis / time 0), the “biological (lipogenic) potency of the native hormone” value is 7±1%. Further, the “return to normoglycemia, slower than native hormone” value in data set [5] (IP administration) is 3.4 fold. Moreover, the “time of maximal fall of circulating glucose” value in [5] (IP, 3.45 nmoles/mouse) came to 1.0 h. The “time of return to normal glucose values after administration” value in data set [5] (IP, 3.45 nmoles/mouse) came out at 6 h. Moreover, the “additional time maintained at the low glucose level” value in [5] (SC, 17.2 nmoles/mouse) is 4 h. Also, in data set [5] (SC, 17.2 nmoles/mouse), the “time of maximal lowering of circulating glucose” value was determined as 4 h. For the same substance, the “half time of return to normoglycemic values relative to native insulin” value in [5] (single SC administration) is on record as 6.7 fold.
Consider “PEG40-PYY3-36: Irreversibly pegylated PYY3-36, one PEG40 residue per PYY3-36 [reference compound]”, for which the “biological activity of irreversibly pegylated PYY3-36 on food intake” value in data set [6] (SC 5 nmol/mouse, 1 h prior to re-feeding) is given as “No significant reduction in food intake”.
For the substance hGH: Recombinant hGH, the “t1/2 of clearance from the circulatory system” value in data set [7] was 20 to 30 min.
For the substance “PEG40-FMS-PYY3-36: 1:1 conjugate of PEG40-SH and MAL-FMS-PYY3-36”, in [3] (after 40 h), the “cumulative amount of free PYY3-36, % of input conjugate” value is recorded as 79%. Further, in data set [6] (setting [11]), the “food consumed in 2 h re-feeding” value turned out to be 4.7±0.14 g chow per 10 mice and the “reduction in food intake compared with saline” value is given as 52%. In [6] (SC 5 nmol/mouse, 24 h prior to re-feeding), the “reduction in food intake” value was 27%. The “half-life of satiety effect, longer than unmodified PYY3-36” value in data set [6] (mouse, in vivo) was 8 fold.
On to “Nα-Nε-diacetyl-PYY3-36: PYY3-36 acetylated at its two amino groups [reference compound]”, for which the “food consumed in 2 h re-feeding” value in data set [6] (20 μg per mouse) came to 10.54±0.08 g chow per 10 mice.
In the case of “(PEG5000-Fmoc)2-insulin: insulin conjugate containing two moles of PEG5000-Fmoc/mole insulin”, the “lipogenic activity, % of native insulin potency” value in [1] (after 30±2 hours at pH 8.5, 37° C.) is recorded as 45±3%; in [1] (after 80±4 hours at pH 8.5, 37° C.), 90%. The “lag period before regeneration of lipogenic potency” value in data set [1] (incubation at pH 8.5, 37° C.) is 10 ± 1 h and 10 h.
Take “insulin: Human (Zn2+-free) insulin [reference compound]”: in [8], the “t1/2 of decline in blood” value stood at 9.0 ± 1.0 h and the “time of peak value in blood after administration” value was 1 ± 0.1 h. For the same substance, the “stimulation of lipogenesis above basal levels” value in data set [1] is 4-6 times above basal and 4-5 times above basal. Moreover, in [1] (rat adipocytes, Example 28 assay), the “ED50 for stimulation of lipogenesis” value is 0.2 ± 0.02 ng/mL and 0.15 ± 0.03 ng/mL. In addition, the “time of maximal fall of circulating glucose” value in [5] (IP, 0.345 nmoles/mouse) turned out to be 0.25 h. In data set [5] (SC, 1.72 nmol/mouse), the “time of maximal reduction of blood glucose level” value came to 30 min. Further, the “ED50 in lipogenic assay” value in data set [9] was 0.3 ± 0.01 ng/mL and 0.3 ng/mL.
As to “(PEG5000)5 hGH: hGH with about five PEG5000 chains linked irreversibly (Clark et al., 1996)”, the “biological potency of hGH” value in data set [10] is “less than 0.1%”.
On to “(PEG40-FMS)2-hGH: two PEG40-FMS moieties linked to hGH”, for which the “native-receptor binding capacity following 50 hours of incubation” value in [4] (37° C., normal rat serum or pH 8.5) is 70-80%.
